Measurements published in patent publication US20150291598A1 (NOVARTIS AG, priority 2012, published 2015).

Test system: P. falciparum (NF54 or 3D7 strain)
Assay: Assay for P. falciparum proliferation in infected human blood cells (SYBR Green)
Format: cell-based, Plasmodium falciparum
Details: Plasmodium falciparum, 3D7|NF54, Erythrocyte, in Homo sapiens, 72 h, NF54 or 3D7 infected human erythrocytes, 72 hours; read-out: EC50 (nM), inhibitory efficacy in delaying P. falciparum proliferation in infected human blood cells
In short: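 NF54 or 3D7 parasites in O+ human erythrocytes at 2.5% hematocrit and 0.3% parasitemia final, exposed to compounds 72 h at 37 °C under 93% N2/4% CO2/3% O2.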

| EC50 | Structure (SMILES) |
| --- | --- |
| 189 nM | CN(Cc1cn2c(-c3ccc(-n4cccn4)cc3)cnc2cn1)c1ccc(F)cc1 [Compound 10] |

Same assay, conditions: Plasmodium falciparum, Erythrocyte, 72 h, NF54 or 3D7 infected human erythrocytes, 72 hours; read-out: EC50 (nM), inhibitory efficacy in delaying P. falciparum proliferation in infected human blood cells

| EC50 | Structure (SMILES) |
| --- | --- |
| 680 nM | O=C(c1cn2c(-c3ccc(C(F)(F)F)cc3)cnc2cn1)N1CCCc2cc(Cl)ccc21 [Compound 218, 6-chloro-1-({3-[4-(trifluoromethyl)phenyl]imidazo[1,2-a]pyrazin-6-yl}carbonyl)-1,2,3,4-tetrahydroquinoline] |
| 116 nM | CN(Cc1cn2c(-c3ccc(OC(F)F)cc3)cnc2cn1)c1ccc(Cl)cc1 [Compound 64, 4-chloro-N-({3-[4-(difluoromethoxy)phenyl]imidazo[1,2-a]pyrazin-6-yl}methyl)-N-methylaniline] |
| > 10000 nM | CN(C(=O)c1cn2c(-c3ccc(C(F)(F)F)cc3)cnc2cn1)c1ccc(Oc2ccccc2)cc1 [Compound 43, N-methyl-N-(4-phenoxyphenyl)-3-[4-(trifluoromethyl)phenyl]imidazo[1,2-a]pyrazine-6-carboxamide] |
| 5520 nM | Cc1cncc(N(C)C(=O)c2cn3c(-c4ccc(C(F)(F)F)cc4)cnc3cn2)c1 [Compound 251, N-methyl-N-(5-methylpyridin-3-yl)-3-[4-(trifluoromethyl)phenyl]imidazo[1,2-a]pyrazine-6-carboxamide] |
| 3610 nM | CN(C(=O)c1cn2c(-c3ccc(OC(C)(C)CN)cc3)cnc2cn1)c1ccc(C#N)cc1 [Compound 402, 3-{4-[(1-amino-2-methylpropan-2-yl)oxy]phenyl}-N-(4-cyanophenyl)-N-methylimidazo[1,2-a]pyrazine-6-carboxamide] |
| > 10000 nM | NC(=O)c1ccc(NC(=O)c2cn3c(-c4ccc(C(F)(F)F)cc4)cnc3cn2)nc1 [Compound 371, 2-C-3-[4-(trifluoromethyl)phenyl]imidazo[1,2-a]pyrazine-6-pyridine-2,5-dicarboxamide] |
| 1130 nM | Cc1cc(N(C)C(=O)c2cn3c(-c4ccc(C(F)(F)F)cc4)cnc3cn2)ccn1 [Compound 299, N-methyl-N-(2-methylpyridin-4-yl)-3-[4-(trifluoromethyl)phenyl]imidazo[1,2-a]pyrazine-6-carboxamide] |
| > 10000 nM | N#Cc1ccc(N(CCN)C(=O)c2cn3c(-c4ccc(C(F)(F)F)cc4)cnc3cn2)cc1 [Compound 386, N-(2-aminoethyl)-N-(4-cyanophenyl)-3-[4-(trifluoromethyl)phenyl]imidazo[1,2-a]pyrazine-6-carboxamide] |
| > 10000 nM | CN(C(=O)c1cn2c(-c3ccc(C(F)(F)F)cc3)cnc2cn1)c1ccc(-c2nnn(C)n2)cc1 [Compound 68, N-methyl-N-[4-(2-methyl-2H-1,2,3,4-tetrazol-5-yl)phenyl]-3-[4-(trifluoromethyl)phenyl]imidazo[1,2-a]pyrazine-6-carboxamide] |
| 1160 nM | COc1ccc(N(C)C(=O)c2cn3c(-c4ccc(C(F)(F)F)cc4)cnc3cn2)cc1 [Compound 139, N-(4-methoxyphenyl)-N-methyl-3-[4-(trifluoromethyl)phenyl]imidazo[1,2-a]pyrazine-6-carboxamide] |
| 148 nM | Fc1ccc2c(c1)CCCN2Cc1cn2c(-c3ccc(C(F)(F)F)cc3)cnc2cn1 [Compound 234, 6-fluoro-1-({3-[4-(trifluoromethyl)phenyl]imidazo[1,2-a]pyrazin-6-yl}methyl)-1,2,3,4-tetrahydroquinoline] |
| > 9800 nM | CN(C)C(=O)c1ccc(-c2cnc3cnc(C(=O)N(C)c4ccc(C#N)cc4)cn23)cc1 [Compound 427, N-(4-cyanophenyl)-3-[4-(dimethylcarbamoyl)phenyl]-N-methylimidazo[1,2-a]pyrazine-6-carboxamide] |
| 784 nM | CN(C(=O)c1cn2c(-c3ccc(NCC(C)(C)N)cc3)cnc2cn1)c1ccc(C#N)cc1 [Compound 278, 3-{4-[(2-amino-2-methylpropyl)amino]phenyl}-N-(4-cyanophenyl)-N-methylimidazo[1,2-a]pyrazine-6-carboxamide] |
| 529 nM | CN(C(=O)c1cn2c(-c3ccc(-c4nncs4)cc3)cnc2cn1)c1ccc(C#N)cc1 [Compound 493, N-(4-cyanophenyl)-N-methyl-3-[4-(1,3,4-thiadiazol-2-yl)phenyl]imidazo[1,2-a]pyrazine-6-carboxamide] |
| 1300 nM | CN(C(=O)c1cn2c(-c3ccc(Cl)c(F)c3)cnc2cn1)c1ccc(C#N)cc1 [Compound 71, 3-(4-chloro-3-fluorophenyl)-N-(4-cyanophenyl)-N-methylimidazo[1,2-a]pyrazine-6-carboxamide] |
| 1750 nM | Cc1cc(C)n(-c2ccc(-c3cnc4cnc(C(=O)N(C)c5ccc(C#N)cc5)cn34)cc2)n1 [Compound 160, N-(4-cyanophenyl)-3-[4-(3,5-dimethyl-1H-pyrazol-1-yl)phenyl]-N-methylimidazo[1,2-a]pyrazine-6-carboxamide] |
| 5020 nM | COc1ccc(N(C)C(=O)c2cn3c(-c4ccc(C(F)(F)F)cc4)cnc3cn2)nn1 [Compound 395, N-(6-methoxypyridazin-3-yl)-N-methyl-3-[4-(trifluoromethyl)phenyl]imidazo[1,2-a]pyrazine-6-carboxamide] |

| EC50 | Structure (SMILES) |
| --- | --- |
| > 8820 nM | CC(c1ccc(Cl)cc1)N(C)C(=O)c1cn2c(-c3ccc(C(F)(F)F)cc3)cnc2cn1 (centres unmarked) [Compound 405, N-[1-(4-chlorophenyl)ethyl]-N-methyl-3-[4-(trifluoromethyl)phenyl]imidazo[1,2-a]pyrazine-6-carboxamide] |
| 168 nM | COc1ccc(-c2cnc3cnc(C(=O)N(C)c4ccc(C#N)cc4)cn23)cc1 [Compound 67, N-(4-cyanophenyl)-3-(4-methoxyphenyl)-N-methylimidazo[1,2-a]pyrazine-6-carboxamide] |
| > 10000 nM | CN(C(=O)c1cn2c(-c3cn[nH]c3)cnc2cn1)c1ccc(C#N)cc1 [Compound 200, N-(4-cyanophenyl)-N-methyl-3-(1H-pyrazol-4-yl)imidazo[1,2-a]pyrazine-6-carboxamide] |
| > 7160 nM | CN(C(=O)c1cn2c(-c3ccc(C(F)(F)F)cc3)cnc2cn1)c1ccc(C(F)(F)F)cn1 [Compound 337, N-methyl-3-[4-(trifluoromethyl)phenyl]-N-[5-(trifluoromethyl)pyridin-2-yl]imidazo[1,2-a]pyrazine-6-carboxamide] |
| 110 nM | Cc1ccc(-c2cnc3cnc(C(=O)N(C)c4ccc(F)cc4)cn23)cc1 [Compound 108, N-(4-fluorophenyl)-N-methyl-3-(4-methylphenyl)imidazo[1,2-a]pyrazine-6-carboxamide] |
| > 9300 nM | CN(C(=O)c1cn2c(-c3ccc(NC(=O)C(C)(C)N)cc3)cnc2cn1)c1ccc(C#N)cc1 [Compound 408, 3-[4-(2-amino-2-methylpropanamido)phenyl]-N-(4-cyanophenyl)-N-methylimidazo[1,2-a]pyrazine-6-carboxamide] |
| 2460 nM | CCOC(=O)c1cnc2cnc(C(=O)N(C)c3ccc(Cl)nc3)cn12 [Compound 253, ethyl 6-[(6-chloropyridin-3-yl)(methyl)carbamoyl]imidazo[1,2-a]pyrazine-3-carboxylate] |
| 1040 nM | CN(C(=O)c1cn2c(-c3ccc(NS(C)(=O)=O)cc3)cnc2cn1)c1ccc(C#N)cc1 [Compound 314, N-(4-cyanophenyl)-3-(4-methanesulfonamidophenyl)-N-methylimidazo[1,2-a]pyrazine-6-carboxamide] |
| 408 nM | CC(C)OC(=O)Nc1ccc(-c2cnc3cnc(C(=O)N(C)c4ccc(C#N)cc4)cn23)cc1 [Compound 261, Propan-2-yl N-(4-{6-[(4-cyanophenyl)(methyl)carbamoyl]imidazo[1,2-a]pyrazin-3-yl}phenyl)carbamate] |
| 784 nM | COc1cccc(N(C)C(=O)c2cn3c(-c4ccc(C(F)(F)F)cc4)cnc3cn2)n1 [Compound 290, N-(6-methoxypyridin-2-yl)-N-methyl-3-[4-(trifluoromethyl)phenyl]imidazo[1,2-a]pyrazine-6-carboxamide] |
| 206 nM | CN(C(=O)c1cn2c(-c3ccc(Cl)cc3)cnc2cn1)c1ccc(C#N)cc1 [Compound 132, 3-(4-chlorophenyl)-N-(4-cyanophenyl)-N-methylimidazo[1,2-a]pyrazine-6-carboxamide] |
| 6500 nM | COc1ccc(-c2cnc3cnc(C(=O)N(C)c4ccc(C#N)cc4)cn23)c(C)c1 [Compound 441, N-(4-cyanophenyl)-3-(4-methoxy-2-methylphenyl)-N-methylimidazo[1,2-a]pyrazine-6-carboxamide] |
| 7020 nM | CC(C)S(=O)(=O)Nc1ccc(-c2cnc3cnc(C(=O)N(C)c4ccc(C#N)cc4)cn23)cc1 [Compound 363, N-(4-cyanophenyl)-N-methyl-3-[4-(propane-2-sulfonamido)phenyl]imidazo[1,2-a]pyrazine-6-carboxamide] |
| 1470 nM | CN(C(=O)c1cn2c(-c3ccc(C(N)=O)cc3)cnc2cn1)c1ccc(Cl)nc1 [Compound 161, 3-(4-carbamoylphenyl)-N-(6-chloropyridin-3-yl)-N-methylimidazo[1,2-a]pyrazine-6-carboxamide] |
| 1130 nM | Cc1ccc(N(C)C(=O)c2cn3c(-c4ccc(C(F)(F)F)cc4)cnc3cn2)cn1 [Compound 277, N-methyl-N-(6-methylpyridin-3-yl)-3-[4-(trifluoromethyl)phenyl]imidazo[1,2-a]pyrazine-6-carboxamide] |
| 4690 nM | CN(C(=O)c1cn2c(-c3ccc(C(F)(F)F)cc3)cnc2cn1)c1cc(C(F)(F)F)ccn1 [Compound 348, N-methyl-3-[4-(trifluoromethyl)phenyl]-N-[4-(trifluoromethyl)pyridin-2-yl]imidazo[1,2-a]pyrazine-6-carboxamide] |
| > 10000 nM | CN(C(=O)c1cn2c(-c3ccc(OCCN)cc3)cnc2cn1)c1ccc(C#N)cc1 [Compound 372, 3-[4-(2-aminoethoxyl)phenyl]-N-(4-cyanophenyl)-N-methylimidazo[1,2-a]pyrazine-6-carboxamide] |
